Assay [1] has as its system Propionibacterium avidum, ATCC 25577. As to the kind of experiment: Growth inhibitory band around filter paper disc (Test Example 2). The class given is cell-based. The conditions noted are these: 0.05 ml of 10% acetone solution on 8 mm disc, 37° C., 3 days, anaerobic. On the procedure: Using an ABCM medium (Eikensha K. K.) as the antibacterial active medium, the medium was heated in an autoclave at a temperature of 115° C. for 15 minutes. A filter paper disc (8 mm.phi.) impregnated with 0.05 ml of 10% acetone solution of each sample was adhered to an agar plate to which Propionibacterium avidum, ATCC 25577 was previously inoculated and dispersed thereon, and anaerobically cultured at 37° C. for 3 days. The diameter of the transparent band (Propionibacterium avidum growth inhibitory band) formed around the filter paper upon completion of the culturing was measured, and the antibacterial power determined therefrom.

For assay [2], the system named is Propionibacterium acnes standard strain (ATCC 11827). As to the kind of experiment: Minimum growth inhibitory concentration (MIC), GAM agar medium pH 7.3±0.1 (Test Example 1). In kind it is cell-based. The method, then:
The growth inhibitory effects of tetrahydroabietic acid salts against Acne bacterium, which is a Gram-positive anaerobic bacterium were evaluated as follows.
Using a GAM agar medium produced by Nissui K. K. as the medium, after an adjustment of the pH of the medium to 7.3±0.1, a minimum growth inhibitory concentration (MIC) of sodium tetrahydroabietate and sodium salt of hydrogenated rosin, needed for a Propionibacterium acnes standard strain (ATCC 11827) was measured and evaluated.
As a Control, MIC's of substances generally known to have an antibacterial action (isopropylmethylphenol, berberine chloride, thioxolone, abietic acid) were also measured.

[3] abbreviates: Cutibacterium acnes, ATCC11827, GAM agar medium, pH 7.3±0.1, read-out: MIC.

Molecules are shown by their SMILES. Values after ≈ are worked out from the molar mass of the structure shown. Read-outs that look alike come from different tables or passages of the source.

As for `CC(C)C1=CC2=CC[C@@H]3[C@](C)(CCC[C@@]3(C)C(=O)O)[C@H]2CC1` [Abietic acid], the zone of inhibition at 10 % in assay [1] (Cutibacterium avidum, ATCC25577, 72 h, read-out: Inhibitory band diameter) was found to be 15 mm. The MIC in assay [2] (setting [3]) worked out at 20 µg/mL (≈ 66.1 µM). Compound `COc1ccc2cc3[n+](cc2c1OC)CCc1cc2c(cc1-3)OCO2` [Berberline chloride, berberine chloride] had an MIC in assay [2] (Cutibacterium acnes, ATCC11827, pH 7.3) of 100 µg/mL. In assay [2] (GAM agar medium, pH 7.3±0.1), `Cc1cc(O)ccc1C(C)C` [Isopropylmethylphenol] yielded an MIC of 100 ppm. Take `CC(C)C1CC[C@H]2C(CC[C@@H]3[C@]2(C)CCC[C@@]3(C)C(=O)[O-])C1.[Na+]` (stereo partly shown) [Sodium tetrahydroabietate]: the Inhibitory band diameter in assay [1] came to 17 mm. The same compound showed an MIC in assay [2] (GAM agar medium, pH 7.3±0.1) of 5 ppm. Besides, in assay [2] (Table 1, in words), the “Antibacterial power compared with other antibacterial substances” value is “far stronger antibacterial power than other antibacterial substances”.

On to `CC(C)[C@@H]1CC[C@H]2[C@@H](CC[C@@H]3[C@]2(C)CCC[C@@]3(C)C(=O)O)C1` [Tetrahydroabietic acid], for which the Inhibitory band diameter in assay [1] came out at 18 mm. In addition, in assay [2] (GAM agar medium, pH 7.3±0.1), the MIC stood at 3 ppm. Take `O=c1oc2cc(O)ccc2s1` [Thioxolone]: the MIC in assay [2] (setting [3]) turned out to be 50 µg/mL (≈ 297 µM).
